Results as given in PMC6199309, “A therapeutic approach to pantothenate kinase associated neurodegeneration” (Nature Communications, 2018).

Assays:
[1] = target: T1, MKK7 (Homo sapiens, UniProt O14733); experiment: KINOMEscan; format: binding; conditions: read-out: %Ctrl @ 10000nM
T1 construct: purchased DiscoverX KINOMEscan

[2] = target: T2, MST1 (Homo sapiens, UniProt Q13043); experiment: KINOMEscan; format: binding; conditions: read-out: %Ctrl @ 10000nM
T2 construct: purchased DiscoverX KINOMEscan

[3] = target: T3, CSNK1E (Homo sapiens, UniProt P49674); experiment: KINOMEscan; format: binding; conditions: read-out: %Ctrl @ 10000nM
T3 construct: purchased DiscoverX KINOMEscan

[4] = target: T4, TLK2 (Homo sapiens, UniProt Q86UE8); experiment: KINOMEscan; format: binding; conditions: read-out: %Ctrl @ 10000nM
T4 construct: purchased DiscoverX KINOMEscan

[5] = target: T5, EPHA1 (Homo sapiens, UniProt P21709); experiment: KINOMEscan; format: binding; conditions: read-out: %Ctrl @ 10000nM
T5 construct: purchased DiscoverX KINOMEscan

[6] = target: T6, HUNK (Homo sapiens, UniProt P57058); experiment: KINOMEscan; format: binding; conditions: read-out: %Ctrl @ 10000nM
T6 construct: purchased DiscoverX KINOMEscan

[7] = target: T7, FLT3(K663Q) (Homo sapiens, UniProt P36888, K663Q); experiment: KINOMEscan; format: binding; conditions: read-out: %Ctrl @ 10000nM
T7 construct: purchased DiscoverX KINOMEscan

[8] = target: T8, RSK4(Kin.Dom.1-N-terminal) (Homo sapiens, UniProt Q9UK32); experiment: KINOMEscan; format: binding; conditions: read-out: %Ctrl @ 10000nM
T8 construct: RSK4(Kin.Dom.1-N-terminal); purchased DiscoverX KINOMEscan

[9] = target: T9, S6K1 (Homo sapiens, UniProt P23443); experiment: KINOMEscan; format: binding; conditions: read-out: %Ctrl @ 10000nM
T9 construct: purchased DiscoverX KINOMEscan

[10] = target: T10, SIK (Homo sapiens, UniProt P57059); experiment: KINOMEscan; format: binding; conditions: read-out: %Ctrl @ 10000nM
T10 construct: purchased DiscoverX KINOMEscan

[11] = target: T11, JAK1(JH1domain-catalytic) (Homo sapiens, UniProt P23458); experiment: KINOMEscan; format: binding; conditions: read-out: %Ctrl @ 10000nM
T11 construct: JAK1(JH1domain-catalytic); purchased DiscoverX KINOMEscan

[12] = target: T12, RIPK4 (Homo sapiens, UniProt P57078); experiment: KINOMEscan; format: binding; conditions: read-out: %Ctrl @ 10000nM
T12 construct: purchased DiscoverX KINOMEscan

[13] = target: T13, ROCK2 (Homo sapiens, UniProt O75116); experiment: KINOMEscan; format: binding; conditions: read-out: %Ctrl @ 10000nM
T13 construct: purchased DiscoverX KINOMEscan

[14] = target: T14, PIK3CA(E545K) (Homo sapiens, UniProt P42336, E545K); experiment: KINOMEscan; format: binding; conditions: read-out: %Ctrl @ 10000nM
T14 construct: purchased DiscoverX KINOMEscan

[15] = target: T15, FYN (Homo sapiens, UniProt P06241); experiment: KINOMEscan; format: binding; conditions: read-out: %Ctrl @ 10000nM
T15 construct: purchased DiscoverX KINOMEscan

[16] = target: T16, CDK8 (Homo sapiens, UniProt P49336); experiment: KINOMEscan; format: binding; conditions: read-out: %Ctrl @ 10000nM
T16 construct: purchased DiscoverX KINOMEscan

[17] = target: T17, PKAC-beta (Homo sapiens, UniProt P22694); experiment: KINOMEscan; format: binding; conditions: read-out: %Ctrl @ 10000nM
T17 construct: purchased DiscoverX KINOMEscan

[18] = target: T18, CSNK1D (Homo sapiens, UniProt P48730); experiment: KINOMEscan; format: binding; conditions: read-out: %Ctrl @ 10000nM
T18 construct: purchased DiscoverX KINOMEscan

[19] = target: T19, PIK3CA(M1043I) (Homo sapiens, UniProt P42336, M1043I); experiment: KINOMEscan; format: binding; conditions: read-out: %Ctrl @ 10000nM
T19 construct: purchased DiscoverX KINOMEscan

[20] = target: T20, PAK4 (Homo sapiens, UniProt O96013); experiment: KINOMEscan; format: binding; conditions: read-out: %Ctrl @ 10000nM
T20 construct: purchased DiscoverX KINOMEscan

[21] = test system: HEK293T cells; experiment: Intracellular CoA levels in transfected HEK293T cells; format: cell-based, human; conditions: 10 μM, 24 h
Method: Chloroform 1.5 ml, 1.2 ml water and 30 pmol of [^13C2]acetyl-CoA (Sigma) was added, and centrifuged at 2000×g for 10 min. The top layer was loaded on a 2-(2-pyridyl) ethyl solid phase extraction column which was equilibrated with 1 ml 50% methanol/2% acetic acid. The column was washed twice with 1 ml 50% methanol/2% acetic acid and 1 ml water. […] Samples were resuspended in 90% methanol containing 15 mM ammonium hydroxide.

[22] = target: T21, ABL1-phosphorylated (Homo sapiens, UniProt P00519); experiment: KINOMEscan; format: binding; conditions: read-out: %Ctrl @ 10000nM
T21 construct: purchased DiscoverX KINOMEscan

[23] = target: T22, YSK1 (Homo sapiens, UniProt O00506); experiment: KINOMEscan; format: binding; conditions: read-out: %Ctrl @ 10000nM
T22 construct: purchased DiscoverX scanMAX; host or cells: E. coli BL21-derived host (T7 phage) or HEK-293

[24] = target: T23, p38-alpha (Homo sapiens, UniProt Q16539); experiment: KINOMEscan; format: binding; conditions: read-out: %Ctrl @ 10000nM
T23 construct: purchased DiscoverX KINOMEscan

[25] = target: T24, FLT3(D835H) (Homo sapiens, UniProt P36888, D835H); experiment: KINOMEscan; format: binding; conditions: read-out: %Ctrl @ 10000nM
T24 construct: purchased DiscoverX KINOMEscan

[26] = target: T25, QSK (Homo sapiens, UniProt Q9Y2K2); experiment: KINOMEscan; format: binding; conditions: read-out: %Ctrl @ 10000nM
T25 construct: purchased DiscoverX KINOMEscan

[27] = target: T26, ABL1(E255K)-phosphorylated (Homo sapiens, UniProt P00519, E255K); experiment: KINOMEscan; format: binding; conditions: read-out: %Ctrl @ 10000nM
T26 construct: purchased DiscoverX KINOMEscan

[28] = target: T27, KIT(V559D,T670I) (Homo sapiens, UniProt P10721, T670I/V559D); experiment: KINOMEscan; format: binding; conditions: read-out: %Ctrl @ 10000nM
T27 construct: purchased DiscoverX KINOMEscan

[29] = target: T28, PIP5K1A (Homo sapiens, UniProt Q99755); experiment: KINOMEscan; format: binding; conditions: read-out: %Ctrl @ 10000nM
T28 construct: purchased DiscoverX KINOMEscan

[30] = target: T29, CSNK2A2 (Homo sapiens, UniProt P19784); experiment: KINOMEscan; format: binding; conditions: read-out: %Ctrl @ 10000nM
T29 construct: purchased DiscoverX KINOMEscan

[31] = target: T30, PRKX (Homo sapiens, UniProt P51817); experiment: KINOMEscan; format: binding; conditions: read-out: %Ctrl @ 10000nM
T30 construct: purchased DiscoverX KINOMEscan

[32] = target: T31, YSK4 (Homo sapiens, UniProt Q56UN5); experiment: KINOMEscan; format: binding; conditions: read-out: %Ctrl @ 10000nM
T31 construct: purchased DiscoverX scanMAX; host or cells: E. coli BL21-derived host (T7 phage) or HEK-293

[33] = target: T32, CDC2L2 (Homo sapiens, UniProt Q9UQ88); experiment: KINOMEscan; format: binding; conditions: read-out: %Ctrl @ 10000nM
T32 construct: purchased DiscoverX KINOMEscan

[34] = target: T33, BMPR1A (Homo sapiens, UniProt P36894); experiment: KINOMEscan; format: binding; conditions: read-out: %Ctrl @ 10000nM
T33 construct: purchased DiscoverX KINOMEscan

[35] = target: T34, RSK4(Kin.Dom.2-C-terminal) (Homo sapiens, UniProt Q9UK32); experiment: KINOMEscan; format: binding; conditions: read-out: %Ctrl @ 10000nM
T34 construct: RSK4(Kin.Dom.2-C-terminal); purchased DiscoverX KINOMEscan

[36] = target: T35, MST4 (Homo sapiens, UniProt Q9P289); experiment: KINOMEscan; format: binding; conditions: read-out: %Ctrl @ 10000nM
T35 construct: purchased DiscoverX KINOMEscan

[37] = target: T36, CDKL5 (Homo sapiens, UniProt O76039); experiment: KINOMEscan; format: binding; conditions: read-out: %Ctrl @ 10000nM
T36 construct: purchased DiscoverX KINOMEscan

[38] = target: T37, JNK2 (Homo sapiens, UniProt P45984); experiment: KINOMEscan; format: binding; conditions: read-out: %Ctrl @ 10000nM
T37 construct: purchased DiscoverX KINOMEscan

[39] = target: T38, LOK (Homo sapiens, UniProt O94804); experiment: KINOMEscan; format: binding; conditions: read-out: %Ctrl @ 10000nM
T38 construct: purchased DiscoverX KINOMEscan

[40] = target: T39, PLK4 (Homo sapiens, UniProt O00444); experiment: KINOMEscan; format: binding; conditions: read-out: %Ctrl @ 10000nM
T39 construct: purchased DiscoverX KINOMEscan

[41] = target: T40, ABL1(F317L)-nonphosphorylated (Homo sapiens, UniProt P00519, F317L); experiment: KINOMEscan; format: binding; conditions: read-out: %Ctrl @ 10000nM
T40 construct: purchased DiscoverX KINOMEscan

T35 sequence (Q9P289 whole entry): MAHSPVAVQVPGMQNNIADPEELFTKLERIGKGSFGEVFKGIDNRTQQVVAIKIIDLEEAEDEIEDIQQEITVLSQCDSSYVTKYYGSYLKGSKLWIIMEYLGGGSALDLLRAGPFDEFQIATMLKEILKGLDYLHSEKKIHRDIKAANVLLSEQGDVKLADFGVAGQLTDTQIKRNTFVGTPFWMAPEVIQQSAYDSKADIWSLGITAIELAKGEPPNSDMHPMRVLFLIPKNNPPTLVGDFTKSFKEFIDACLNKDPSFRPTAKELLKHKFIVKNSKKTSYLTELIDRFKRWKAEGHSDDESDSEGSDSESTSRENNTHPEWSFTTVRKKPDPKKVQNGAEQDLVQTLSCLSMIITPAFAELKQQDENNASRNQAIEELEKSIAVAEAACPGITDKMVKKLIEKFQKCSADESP
T29 sequence (P19784 whole entry): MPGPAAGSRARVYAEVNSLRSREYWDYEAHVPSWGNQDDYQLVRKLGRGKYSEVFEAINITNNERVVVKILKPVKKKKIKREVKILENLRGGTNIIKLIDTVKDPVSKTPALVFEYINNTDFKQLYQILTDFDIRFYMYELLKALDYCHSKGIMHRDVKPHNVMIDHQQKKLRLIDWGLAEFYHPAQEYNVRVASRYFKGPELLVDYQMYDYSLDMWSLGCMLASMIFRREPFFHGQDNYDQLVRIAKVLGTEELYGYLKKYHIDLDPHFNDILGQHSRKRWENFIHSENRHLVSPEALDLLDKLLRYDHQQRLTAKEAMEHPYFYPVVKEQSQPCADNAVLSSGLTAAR
T15 sequence (P06241 whole entry): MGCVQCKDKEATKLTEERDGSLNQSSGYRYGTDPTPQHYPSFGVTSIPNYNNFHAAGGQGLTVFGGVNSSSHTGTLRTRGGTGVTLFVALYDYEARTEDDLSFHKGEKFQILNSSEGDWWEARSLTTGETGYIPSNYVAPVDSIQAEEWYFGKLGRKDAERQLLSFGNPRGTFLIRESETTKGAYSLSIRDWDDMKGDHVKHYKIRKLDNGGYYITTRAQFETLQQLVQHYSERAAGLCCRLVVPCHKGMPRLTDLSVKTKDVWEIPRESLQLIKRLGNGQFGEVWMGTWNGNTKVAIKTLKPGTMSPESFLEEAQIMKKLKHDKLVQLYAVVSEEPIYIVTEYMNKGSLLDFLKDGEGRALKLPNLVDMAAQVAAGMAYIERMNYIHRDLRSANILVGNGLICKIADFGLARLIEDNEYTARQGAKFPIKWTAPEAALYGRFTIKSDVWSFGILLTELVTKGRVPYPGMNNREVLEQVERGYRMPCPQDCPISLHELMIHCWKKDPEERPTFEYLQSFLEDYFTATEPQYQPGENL
T23 sequence (Q16539 whole entry): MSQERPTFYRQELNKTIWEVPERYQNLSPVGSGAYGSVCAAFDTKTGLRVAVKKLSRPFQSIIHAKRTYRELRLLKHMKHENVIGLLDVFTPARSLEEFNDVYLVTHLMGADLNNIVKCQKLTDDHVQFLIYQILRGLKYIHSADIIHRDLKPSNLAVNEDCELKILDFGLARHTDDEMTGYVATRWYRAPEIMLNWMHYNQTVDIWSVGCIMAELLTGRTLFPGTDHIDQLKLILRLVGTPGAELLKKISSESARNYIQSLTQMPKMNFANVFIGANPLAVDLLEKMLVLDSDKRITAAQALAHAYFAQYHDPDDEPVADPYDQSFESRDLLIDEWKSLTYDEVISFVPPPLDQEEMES
T3 sequence (P49674 whole entry): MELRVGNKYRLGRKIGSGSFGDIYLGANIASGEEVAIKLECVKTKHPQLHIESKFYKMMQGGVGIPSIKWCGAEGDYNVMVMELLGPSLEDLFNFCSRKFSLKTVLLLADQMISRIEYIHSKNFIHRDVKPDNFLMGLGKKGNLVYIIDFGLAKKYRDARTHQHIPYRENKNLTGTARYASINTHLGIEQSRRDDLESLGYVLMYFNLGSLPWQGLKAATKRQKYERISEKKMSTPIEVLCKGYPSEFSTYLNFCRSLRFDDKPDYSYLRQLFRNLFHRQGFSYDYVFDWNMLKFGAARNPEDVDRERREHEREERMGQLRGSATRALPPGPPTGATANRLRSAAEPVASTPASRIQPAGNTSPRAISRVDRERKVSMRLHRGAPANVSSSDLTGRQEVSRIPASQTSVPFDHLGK
T32 sequence (Q9UQ88 whole entry): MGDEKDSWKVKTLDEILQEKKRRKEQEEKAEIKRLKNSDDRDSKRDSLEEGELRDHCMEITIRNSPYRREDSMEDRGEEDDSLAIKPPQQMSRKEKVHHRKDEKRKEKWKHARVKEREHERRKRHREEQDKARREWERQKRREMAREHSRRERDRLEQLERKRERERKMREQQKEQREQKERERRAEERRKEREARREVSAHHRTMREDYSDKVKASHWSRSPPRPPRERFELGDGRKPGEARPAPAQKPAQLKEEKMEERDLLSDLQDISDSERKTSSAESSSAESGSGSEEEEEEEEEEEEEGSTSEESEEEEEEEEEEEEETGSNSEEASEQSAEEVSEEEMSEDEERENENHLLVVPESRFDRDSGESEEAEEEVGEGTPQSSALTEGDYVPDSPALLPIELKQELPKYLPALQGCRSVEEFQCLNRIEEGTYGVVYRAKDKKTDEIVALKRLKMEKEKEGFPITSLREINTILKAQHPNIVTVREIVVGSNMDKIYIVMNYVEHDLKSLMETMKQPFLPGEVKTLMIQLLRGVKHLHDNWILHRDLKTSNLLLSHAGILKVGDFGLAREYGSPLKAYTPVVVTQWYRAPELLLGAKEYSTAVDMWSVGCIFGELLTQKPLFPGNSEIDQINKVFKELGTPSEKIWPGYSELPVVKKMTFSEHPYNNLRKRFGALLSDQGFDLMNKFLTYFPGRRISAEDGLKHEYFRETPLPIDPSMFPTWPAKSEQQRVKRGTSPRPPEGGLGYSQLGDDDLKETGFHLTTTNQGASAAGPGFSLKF
T18 sequence (P48730 whole entry): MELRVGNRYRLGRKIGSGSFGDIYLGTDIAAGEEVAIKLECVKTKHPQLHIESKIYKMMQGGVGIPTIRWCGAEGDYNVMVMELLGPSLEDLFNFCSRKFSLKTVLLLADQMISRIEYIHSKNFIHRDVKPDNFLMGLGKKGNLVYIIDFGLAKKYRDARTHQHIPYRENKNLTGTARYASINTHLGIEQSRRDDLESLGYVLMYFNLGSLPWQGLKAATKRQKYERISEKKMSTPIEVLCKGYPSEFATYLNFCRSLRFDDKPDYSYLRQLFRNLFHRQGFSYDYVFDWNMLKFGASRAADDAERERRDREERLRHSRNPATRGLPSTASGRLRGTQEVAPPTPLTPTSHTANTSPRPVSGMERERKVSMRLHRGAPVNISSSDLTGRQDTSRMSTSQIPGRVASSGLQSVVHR
T39 sequence (O00444 whole entry): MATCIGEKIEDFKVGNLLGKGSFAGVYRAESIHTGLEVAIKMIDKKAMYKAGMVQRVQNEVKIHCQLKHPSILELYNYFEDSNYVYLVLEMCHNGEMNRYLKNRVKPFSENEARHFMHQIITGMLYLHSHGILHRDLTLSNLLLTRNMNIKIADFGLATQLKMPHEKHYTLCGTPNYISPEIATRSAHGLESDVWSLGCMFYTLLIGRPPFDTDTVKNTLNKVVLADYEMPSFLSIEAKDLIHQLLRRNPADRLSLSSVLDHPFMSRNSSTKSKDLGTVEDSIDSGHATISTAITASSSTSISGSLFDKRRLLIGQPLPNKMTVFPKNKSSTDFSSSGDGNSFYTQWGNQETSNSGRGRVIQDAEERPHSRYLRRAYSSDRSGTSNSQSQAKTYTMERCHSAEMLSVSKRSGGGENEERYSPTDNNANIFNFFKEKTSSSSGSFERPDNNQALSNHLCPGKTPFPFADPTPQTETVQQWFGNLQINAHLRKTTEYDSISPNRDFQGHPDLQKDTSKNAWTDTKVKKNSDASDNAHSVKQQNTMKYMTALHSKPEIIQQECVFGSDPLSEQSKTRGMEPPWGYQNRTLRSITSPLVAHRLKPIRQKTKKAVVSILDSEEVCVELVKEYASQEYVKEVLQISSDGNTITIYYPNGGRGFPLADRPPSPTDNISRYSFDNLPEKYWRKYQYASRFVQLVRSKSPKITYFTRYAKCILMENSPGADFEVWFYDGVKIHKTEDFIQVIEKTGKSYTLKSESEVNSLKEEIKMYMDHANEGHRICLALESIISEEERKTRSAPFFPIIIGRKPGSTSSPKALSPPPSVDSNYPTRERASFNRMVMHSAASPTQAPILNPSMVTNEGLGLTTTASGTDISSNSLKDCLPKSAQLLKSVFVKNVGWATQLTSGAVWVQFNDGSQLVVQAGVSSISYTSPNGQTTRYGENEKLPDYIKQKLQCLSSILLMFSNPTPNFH
T16 sequence (P49336 whole entry): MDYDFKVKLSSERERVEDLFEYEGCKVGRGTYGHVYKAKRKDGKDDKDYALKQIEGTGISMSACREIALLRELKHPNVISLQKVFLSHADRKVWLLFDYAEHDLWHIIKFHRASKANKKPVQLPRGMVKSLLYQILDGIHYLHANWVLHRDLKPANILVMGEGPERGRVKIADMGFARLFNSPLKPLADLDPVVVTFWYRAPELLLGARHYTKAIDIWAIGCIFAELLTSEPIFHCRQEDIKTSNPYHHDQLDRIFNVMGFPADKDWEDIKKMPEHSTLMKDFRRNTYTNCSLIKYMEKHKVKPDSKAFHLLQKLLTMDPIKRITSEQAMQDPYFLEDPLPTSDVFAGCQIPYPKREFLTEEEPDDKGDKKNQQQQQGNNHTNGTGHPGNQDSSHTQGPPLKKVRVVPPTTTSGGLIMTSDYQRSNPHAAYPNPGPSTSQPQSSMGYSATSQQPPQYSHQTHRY

Q: Which remaining binding at 10 µM [1] does the source give for `CC(C)c1ccc(CC(=O)N2CCN(c3ccc(C#N)nn3)CC2)cc1` [PZ-2891, 6-(4-(2-(4-isopropylphenyl)acetyl)piperazin-1-yl)pyridazine-3-carbonitrile] here?
A: 84%

Q: What about the remaining binding at 10 µM [2] of the same compound?
A: 86%

Q: And the remaining binding at 10 µM [3]?
A: 97%

Q: What about the remaining binding at 10 µM [4] of the same compound?
A: 98%

Q: What about the remaining binding at 10 µM [5] of the same compound?
A: 95%

Q: What about the remaining binding at 10 µM [6] of the same compound?
A: 100%

Q: What about the remaining binding at 10 µM [7] of the same compound?
A: 88%

Q: And the remaining binding at 10 µM [8]?
A: 97%

Q: And the remaining binding at 10 µM [9]?
A: 96%

Q: And the remaining binding at 10 µM [10]?
A: 83%

Q: And the remaining binding at 10 µM [11]?
A: 74%

Q: And the remaining binding at 10 µM [12]?
A: 81%

Q: What about the remaining binding at 10 µM [13] of the same compound?
A: 100%

Q: What about the remaining binding at 10 µM [14] of the same compound?
A: 65%

Q: What about the remaining binding at 10 µM [15] of the same compound?
A: 87%

Q: What about the remaining binding at 10 µM [16] of the same compound?
A: 83%

Q: What about the remaining binding at 10 µM [17] of the same compound?
A: 95%

Q: What about the remaining binding at 10 µM [18] of the same compound?
A: 93%

Q: And the remaining binding at 10 µM [19]?
A: 74%

Q: And the remaining binding at 10 µM [20]?
A: 92%

Q: What about the “intracellular CoA, control (empty vector) HEK293T cells” value [21] of the same compound?
A: significantly increased the levels of intracellular CoA

Q: And the remaining binding at 10 µM [22]?
A: 78%

Q: What about the remaining binding at 10 µM [23] of the same compound?
A: 100%

Q: What about the remaining binding at 10 µM [24] of the same compound?
A: 100%

Q: What about the remaining binding at 10 µM [25] of the same compound?
A: 92%

Q: And the remaining binding at 10 µM [26]?
A: 82%

Q: And the remaining binding at 10 µM [27]?
A: 53%

Q: And the remaining binding at 10 µM [28]?
A: 94%

Q: And the remaining binding at 10 µM [29]?
A: 86%

Q: What about the remaining binding at 10 µM [30] of the same compound?
A: 88%

Q: What about the remaining binding at 10 µM [31] of the same compound?
A: 70%

Q: What about the remaining binding at 10 µM [32] of the same compound?
A: 89%

Q: And the remaining binding at 10 µM [33]?
A: 87%

Q: What about the remaining binding at 10 µM [34] of the same compound?
A: 100%

Q: And the remaining binding at 10 µM [35]?
A: 71%

Q: And the remaining binding at 10 µM [36]?
A: 91%

Q: And the remaining binding at 10 µM [37]?
A: 67%

Q: And the remaining binding at 10 µM [38]?
A: 79%

Q: And the remaining binding at 10 µM [39]?
A: 86%

Q: What about the remaining binding at 10 µM [40] of the same compound?
A: 88%

Q: What about the remaining binding at 10 µM [41] of the same compound?
A: 73%
